According to ChEMBL document CHEMBL4311943, “3-[(1S,2S,3R)-2,3-Difluoro-1-hydroxy-7-methylsulfonylindan-4-yl]oxy-5-fluorobenzonitrile (PT2977), a Hypoxia-Inducible Factor 2α (HIF-2α) Inhibitor for the Treatment of Clear Cell Renal Cell Carcinoma” (J Med Chem, 2019):
Calls of active or inactive are those of the source. No cut-off for these calls is given here.

Columns and labels:
[1] = target: Voltage-gated inwardly rectifying potassium channel KCNH2 (Homo sapiens, UniProt Q12809); assay: Activity at human ERG at 10 uM
[2] = AUClast in patient with advanced solid tumor at 20 mg, po administered once daily measured on day 15; format: ADME, organism-based; set-up: dose 20 mg, route oral, time 0 - last; settings: human, in vivo
[3] = target: Calcium/calmodulin-dependent protein kinase type IV (Homo sapiens) (UniProt Q16566); assay: Activity at human CAMK4 at 10 uM
[4] = target: Prostaglandin D2 receptor (Homo sapiens) (UniProt Q13258); assay: Activity at human Prostanoid DP receptor at 10 uM
Prostaglandin D2 receptor (Homo sapiens), sequence (Q13258 whole entry): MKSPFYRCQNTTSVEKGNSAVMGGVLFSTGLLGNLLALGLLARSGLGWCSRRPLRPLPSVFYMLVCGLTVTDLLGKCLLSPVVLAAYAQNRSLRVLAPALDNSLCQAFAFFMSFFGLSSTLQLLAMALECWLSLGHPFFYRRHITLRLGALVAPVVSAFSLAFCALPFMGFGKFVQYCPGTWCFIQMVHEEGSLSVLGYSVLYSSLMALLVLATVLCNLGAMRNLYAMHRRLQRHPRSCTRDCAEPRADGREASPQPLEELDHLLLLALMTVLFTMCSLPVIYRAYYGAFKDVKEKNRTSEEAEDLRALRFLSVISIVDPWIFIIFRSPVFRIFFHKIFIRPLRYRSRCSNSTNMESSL

[5] = target: Vasoactive intestinal polypeptide receptor 1 (Homo sapiens) (UniProt P32241); assay: Activity at human VPAC1 at 10 uM
Vasoactive intestinal polypeptide receptor 1 (Homo sapiens), sequence (P32241 whole entry): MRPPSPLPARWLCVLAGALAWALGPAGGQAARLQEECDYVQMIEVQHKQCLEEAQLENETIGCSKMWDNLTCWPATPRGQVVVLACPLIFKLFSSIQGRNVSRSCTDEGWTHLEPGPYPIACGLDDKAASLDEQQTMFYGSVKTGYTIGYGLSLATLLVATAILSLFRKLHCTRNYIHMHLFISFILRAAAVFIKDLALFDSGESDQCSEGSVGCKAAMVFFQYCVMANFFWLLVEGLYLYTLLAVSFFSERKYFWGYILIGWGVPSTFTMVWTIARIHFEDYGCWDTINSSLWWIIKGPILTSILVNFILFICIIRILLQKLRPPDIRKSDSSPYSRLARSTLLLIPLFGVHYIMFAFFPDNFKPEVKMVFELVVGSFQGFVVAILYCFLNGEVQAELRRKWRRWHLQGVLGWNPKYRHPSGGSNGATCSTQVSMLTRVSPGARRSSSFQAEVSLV

[6] = target: Protein kinase C eta type (Homo sapiens) (UniProt P24723); assay: Activity at human PKCeta at 10 uM
[7] = target: Prokineticin receptor 1 (Homo sapiens) (UniProt Q8TCW9); assay: Activity at human PK1 receptor at 10 uM
Prokineticin receptor 1 (Homo sapiens), sequence (Q8TCW9 whole entry): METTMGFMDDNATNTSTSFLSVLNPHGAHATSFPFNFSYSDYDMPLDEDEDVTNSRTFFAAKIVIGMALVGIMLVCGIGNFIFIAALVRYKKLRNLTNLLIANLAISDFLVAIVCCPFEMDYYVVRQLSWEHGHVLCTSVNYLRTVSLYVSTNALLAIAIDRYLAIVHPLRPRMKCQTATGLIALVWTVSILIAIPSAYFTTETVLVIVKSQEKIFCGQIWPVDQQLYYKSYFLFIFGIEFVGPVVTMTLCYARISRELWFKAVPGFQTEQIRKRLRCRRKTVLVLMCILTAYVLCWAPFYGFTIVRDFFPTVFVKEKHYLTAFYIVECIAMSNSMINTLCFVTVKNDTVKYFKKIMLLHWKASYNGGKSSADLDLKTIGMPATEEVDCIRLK

Cytochrome P450 2B6 = Cytochrome P450 2B6 (Homo sapiens, UniProt P20813); assay: Inhibition of CYP2B6 in human liver microsomes up to 50 uM using bupropion as substrate measured after 10 mins in presence of NADPH by LC-MS/MS analysis; format: ADME
Cytochrome P450 2B6, sequence (P20813 whole entry): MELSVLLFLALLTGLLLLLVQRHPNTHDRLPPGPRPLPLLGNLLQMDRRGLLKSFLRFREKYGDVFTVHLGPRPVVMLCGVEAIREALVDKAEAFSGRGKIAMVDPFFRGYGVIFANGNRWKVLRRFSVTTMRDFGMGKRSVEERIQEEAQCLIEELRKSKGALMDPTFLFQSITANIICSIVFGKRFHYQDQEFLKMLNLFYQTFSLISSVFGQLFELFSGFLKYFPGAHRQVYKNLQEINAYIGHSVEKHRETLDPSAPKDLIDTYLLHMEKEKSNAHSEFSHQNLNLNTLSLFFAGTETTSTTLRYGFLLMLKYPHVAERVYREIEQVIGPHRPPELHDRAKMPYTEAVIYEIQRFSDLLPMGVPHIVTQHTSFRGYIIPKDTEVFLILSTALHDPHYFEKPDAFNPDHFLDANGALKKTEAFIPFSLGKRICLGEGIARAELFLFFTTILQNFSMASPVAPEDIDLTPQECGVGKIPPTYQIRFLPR

[8] = target: Voltage-gated L-type calcium channel (Homo sapiens, UniProt Q13936+Q13698+Q01668+O60840); assay: Activity at human L-type calcium channel at 10 uM; format: protein assay
[9] = target: cGMP-dependent protein kinase 1 (Homo sapiens) (UniProt Q13976); assay: Activity at human PKG1alpha at 10 uM
[10] = target: Rho-associated protein kinase 2 (Homo sapiens) (UniProt O75116); assay: Activity at human ROCK2 at 10 uM
[11] = target: D(1A) dopamine receptor (Homo sapiens) (UniProt P21728); assay: Activity at human D1 receptor at 10 uM
[12] = target: Somatostatin receptor type 4 (Homo sapiens) (UniProt P31391); assay: Activity at human SST4 receptor at 10 uM
[13] = Cmax in patient with advanced solid tumor at 240 mg, po administered once daily measured on day 15; format: ADME, organism-based; set-up: dose 240 mg, route oral; settings: human, in vivo
UGT2B17 = target: T1, UGT2B17 (Homo sapiens, UniProt O75795); assay: Substrate activity at recombinant human UGT2B17 expressed in baculovirus infected insect cell membranes assessed as enzyme-mediated glucuronidation by measuring Km at 50 uM preincubated for 5 mins followed by UDPGA addition and measured after 60 mins by LC-MS/MS analysis; format: ADME
T1 sequence (O75795 whole entry): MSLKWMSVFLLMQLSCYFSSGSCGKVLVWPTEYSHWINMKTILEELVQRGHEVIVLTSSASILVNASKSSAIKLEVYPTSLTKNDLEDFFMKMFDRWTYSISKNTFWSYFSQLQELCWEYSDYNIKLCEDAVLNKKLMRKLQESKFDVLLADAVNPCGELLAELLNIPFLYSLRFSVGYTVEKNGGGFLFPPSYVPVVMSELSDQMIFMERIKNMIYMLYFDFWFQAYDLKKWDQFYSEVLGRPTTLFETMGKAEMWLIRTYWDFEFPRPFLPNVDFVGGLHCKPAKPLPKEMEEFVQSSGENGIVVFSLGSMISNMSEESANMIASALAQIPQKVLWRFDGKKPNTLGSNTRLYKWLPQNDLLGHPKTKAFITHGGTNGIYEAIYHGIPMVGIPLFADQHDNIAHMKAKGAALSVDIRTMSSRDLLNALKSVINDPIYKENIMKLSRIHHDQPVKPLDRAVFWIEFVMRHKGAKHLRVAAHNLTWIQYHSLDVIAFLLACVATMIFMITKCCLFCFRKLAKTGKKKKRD

[14] = Plasma concentration in patient with advanced solid tumor at 40 mg, po administered once daily measured on day 15 after 24 hrs; format: ADME, organism-based; settings: human
[15] = Half life in patient with advanced solid tumor at 120 mg, po administered once daily measured on day 15; format: ADME, organism-based; settings: human, in vivo
[16] = target: Muscarinic acetylcholine receptor M1 (Homo sapiens) (UniProt P11229); assay: Activity at human M1 receptor at 10 uM
[17] = target: Cysteinyl leukotriene receptor 1 (Homo sapiens) (UniProt Q9Y271); assay: Activity at human CysLT1 receptor at 10 uM
Cysteinyl leukotriene receptor 1 (Homo sapiens), sequence (Q9Y271 whole entry): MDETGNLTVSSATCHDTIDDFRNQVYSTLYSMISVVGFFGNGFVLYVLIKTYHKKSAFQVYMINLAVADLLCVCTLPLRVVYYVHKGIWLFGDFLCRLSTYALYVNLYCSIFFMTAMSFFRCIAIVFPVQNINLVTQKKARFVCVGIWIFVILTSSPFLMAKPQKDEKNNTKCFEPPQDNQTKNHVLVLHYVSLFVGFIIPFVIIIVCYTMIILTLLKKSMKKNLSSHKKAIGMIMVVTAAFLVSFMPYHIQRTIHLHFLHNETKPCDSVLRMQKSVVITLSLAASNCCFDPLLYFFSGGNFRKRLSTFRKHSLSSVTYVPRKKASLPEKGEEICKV

[18] = target: Prostacyclin receptor (Homo sapiens) (UniProt P43119); assay: Activity at human Prostanoid IP1 receptor at 10 uM; format: functional
[19] = target: Mitogen-activated protein kinase 14 (Homo sapiens) (UniProt Q16539); assay: Activity at human SAPK2a at 10 uM
Mitogen-activated protein kinase 14 (Homo sapiens), sequence (Q16539 whole entry): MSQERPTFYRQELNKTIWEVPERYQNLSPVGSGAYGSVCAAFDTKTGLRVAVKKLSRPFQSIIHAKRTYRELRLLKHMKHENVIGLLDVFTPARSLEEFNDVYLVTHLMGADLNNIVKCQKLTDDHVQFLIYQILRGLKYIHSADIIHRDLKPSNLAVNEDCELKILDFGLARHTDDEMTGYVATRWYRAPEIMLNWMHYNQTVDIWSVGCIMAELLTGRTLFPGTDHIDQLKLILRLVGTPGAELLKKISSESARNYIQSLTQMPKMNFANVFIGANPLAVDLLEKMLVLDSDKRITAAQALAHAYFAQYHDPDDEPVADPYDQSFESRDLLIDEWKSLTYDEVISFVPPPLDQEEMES

[20] = target: Adenosine receptor A3 (Homo sapiens) (UniProt P0DMS8); assay: Activity at human adenosine A3 receptor at 10 uM
[21] = target: Inward rectifier potassium channel 2 (Homo sapiens, UniProt P63252); assay: Activity at human Kir2.1 at 10 uM
Inward rectifier potassium channel 2, sequence (P63252 whole entry): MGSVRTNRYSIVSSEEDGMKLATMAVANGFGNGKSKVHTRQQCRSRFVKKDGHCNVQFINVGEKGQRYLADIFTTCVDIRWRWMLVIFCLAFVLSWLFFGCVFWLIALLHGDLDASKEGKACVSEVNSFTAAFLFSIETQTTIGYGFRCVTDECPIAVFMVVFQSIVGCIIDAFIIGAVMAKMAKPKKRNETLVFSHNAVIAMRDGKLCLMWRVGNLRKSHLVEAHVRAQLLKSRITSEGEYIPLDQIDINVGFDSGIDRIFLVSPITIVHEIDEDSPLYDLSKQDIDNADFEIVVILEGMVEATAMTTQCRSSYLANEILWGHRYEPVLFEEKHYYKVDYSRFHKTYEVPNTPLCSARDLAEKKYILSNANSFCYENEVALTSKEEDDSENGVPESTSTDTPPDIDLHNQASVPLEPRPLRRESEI

[22] = target: Prostaglandin F2-alpha receptor (Homo sapiens) (UniProt P43088); assay: Activity at human Prostanoid FP receptor at 10 uM
[23] = target: Tyrosine-protein phosphatase non-receptor type 2 (Homo sapiens) (UniProt P17706); assay: Activity at human TCPTP at 10 uM
[24] = target: Tyrosine-protein phosphatase non-receptor type 1 (Homo sapiens) (UniProt P18031); assay: Activity at human PTP1B at 10 uM
[25] = target: Tyrosine-protein kinase ABL1 (Homo sapiens) (UniProt P00519); assay: Activity at human Abl at 10 uM
Tyrosine-protein kinase ABL1 (Homo sapiens), sequence (P00519 whole entry): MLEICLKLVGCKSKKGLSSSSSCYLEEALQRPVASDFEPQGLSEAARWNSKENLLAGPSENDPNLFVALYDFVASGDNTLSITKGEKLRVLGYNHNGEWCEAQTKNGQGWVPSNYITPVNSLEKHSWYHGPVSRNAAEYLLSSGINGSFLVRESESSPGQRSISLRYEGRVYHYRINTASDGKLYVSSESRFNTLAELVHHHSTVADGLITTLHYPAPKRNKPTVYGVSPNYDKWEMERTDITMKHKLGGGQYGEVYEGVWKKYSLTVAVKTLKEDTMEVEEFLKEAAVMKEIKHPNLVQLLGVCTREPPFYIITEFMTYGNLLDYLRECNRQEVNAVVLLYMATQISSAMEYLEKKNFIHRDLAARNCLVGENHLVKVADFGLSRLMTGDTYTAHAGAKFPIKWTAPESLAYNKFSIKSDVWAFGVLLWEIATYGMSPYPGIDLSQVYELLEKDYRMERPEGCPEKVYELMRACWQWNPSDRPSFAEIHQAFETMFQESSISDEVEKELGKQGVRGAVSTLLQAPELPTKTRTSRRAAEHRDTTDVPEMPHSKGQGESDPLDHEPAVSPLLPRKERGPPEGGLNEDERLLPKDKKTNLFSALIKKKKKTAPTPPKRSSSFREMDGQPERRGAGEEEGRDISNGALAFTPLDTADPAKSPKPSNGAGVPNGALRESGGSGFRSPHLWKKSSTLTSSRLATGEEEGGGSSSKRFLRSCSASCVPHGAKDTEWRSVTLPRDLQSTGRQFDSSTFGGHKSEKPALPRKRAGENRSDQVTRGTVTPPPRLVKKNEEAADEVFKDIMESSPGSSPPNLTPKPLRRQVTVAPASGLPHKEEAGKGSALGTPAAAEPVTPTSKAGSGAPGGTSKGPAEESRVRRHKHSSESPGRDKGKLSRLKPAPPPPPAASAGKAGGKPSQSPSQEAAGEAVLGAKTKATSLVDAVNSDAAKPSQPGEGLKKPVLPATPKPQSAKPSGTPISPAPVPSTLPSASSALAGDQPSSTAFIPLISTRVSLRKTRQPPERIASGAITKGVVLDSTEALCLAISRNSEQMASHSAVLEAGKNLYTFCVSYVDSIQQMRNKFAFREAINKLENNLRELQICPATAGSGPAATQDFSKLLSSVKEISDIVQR

[26] = target: 5-hydroxytryptamine receptor 2C (Homo sapiens) (UniProt P28335); assay: Activity at human 5-HT2C receptor at 10 uM
5-hydroxytryptamine receptor 2C (Homo sapiens), sequence (P28335 whole entry): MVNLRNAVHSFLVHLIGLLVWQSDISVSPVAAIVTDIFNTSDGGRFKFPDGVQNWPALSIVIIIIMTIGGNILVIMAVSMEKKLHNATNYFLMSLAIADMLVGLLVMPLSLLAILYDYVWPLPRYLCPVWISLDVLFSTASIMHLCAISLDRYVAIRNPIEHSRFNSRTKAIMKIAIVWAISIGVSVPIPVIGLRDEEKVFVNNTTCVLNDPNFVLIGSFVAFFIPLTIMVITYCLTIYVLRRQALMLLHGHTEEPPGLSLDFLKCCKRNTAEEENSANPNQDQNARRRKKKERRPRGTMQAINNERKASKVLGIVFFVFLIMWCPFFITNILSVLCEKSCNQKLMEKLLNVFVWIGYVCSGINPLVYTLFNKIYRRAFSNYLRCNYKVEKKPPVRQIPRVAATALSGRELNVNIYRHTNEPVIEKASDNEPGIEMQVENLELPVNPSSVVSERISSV

[27] = target: 5-hydroxytryptamine receptor 1A (Homo sapiens) (UniProt P08908); assay: Activity at human 5-HT1A receptor at 10 uM
[28] = target: Melanocortin receptor 5 (Homo sapiens) (UniProt P33032); assay: Activity at human MC5 receptor at 10 uM
Melanocortin receptor 5 (Homo sapiens), sequence (P33032 whole entry): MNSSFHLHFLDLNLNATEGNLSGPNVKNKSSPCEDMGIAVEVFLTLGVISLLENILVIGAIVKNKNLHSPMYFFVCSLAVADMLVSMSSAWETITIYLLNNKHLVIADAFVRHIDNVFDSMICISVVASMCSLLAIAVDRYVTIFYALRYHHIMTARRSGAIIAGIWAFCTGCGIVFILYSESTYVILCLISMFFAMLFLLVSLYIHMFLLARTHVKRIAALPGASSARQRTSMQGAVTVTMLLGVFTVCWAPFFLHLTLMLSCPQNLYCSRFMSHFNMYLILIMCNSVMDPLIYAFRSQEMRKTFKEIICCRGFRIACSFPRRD

[29] = target: Histamine H2 receptor (Homo sapiens) (UniProt P25021); assay: Activity at human H2 receptor at 10 uM

SMILES: CS(=O)(=O)c1ccc(Oc2cc(F)cc(C#N)c2)c2c1[C@H](O)[C@H](F)[C@@H]2F [BELZUTIFAN]
- Activity [1]: Not Active
- AUC(0-t) [2]: 2100 ng·h/mL
- Activity [3]: inactive
- Activity [4]: inactive
- Activity [5]: inactive
- Activity [6]: inactive
- Activity [7]: inactive
- inhibition (INH) (Cytochrome P450 2B6): Not Active
- Activity [8]: Not Active
- Activity [9]: inactive
- Activity [10]: inactive
- Activity [11]: inactive
- Activity [12]: inactive
- Cmax [13]: 2700 ng/mL
- Km at 1 h, 50 µM (UGT2B17): 10 µM
- concentration at 24 h [14]: 190 ng/mL
- half-life [15]: 20.9 h
- Activity [16]: inactive
- Activity [17]: inactive
- Activity [18]: inactive
- Activity [19]: inactive
- Activity [20]: inactive
- Activity [21]: Not Active
- Activity [22]: inactive
- Activity [23]: inactive
- Activity [24]: inactive
- Activity [25]: inactive
- Activity [26]: inactive
- Activity [27]: inactive
- Activity [28]: inactive
- Activity [29]: inactive
